# Measurements from publication PMC11249017 (Journal of Medicinal Chemistry, 2024).
# Entries after “also recorded” stand apart in the source; their conditions may differ. Marks after values point to notes of the source that are not given here.
# Tests used:
# human G2A [1] = target: human G2A (Homo sapiens, UniProt Q9UNW8); details: compared with T-10418; 15 min after addition
# Target sequence in this assay (P32121 whole entry partner, one chain of several): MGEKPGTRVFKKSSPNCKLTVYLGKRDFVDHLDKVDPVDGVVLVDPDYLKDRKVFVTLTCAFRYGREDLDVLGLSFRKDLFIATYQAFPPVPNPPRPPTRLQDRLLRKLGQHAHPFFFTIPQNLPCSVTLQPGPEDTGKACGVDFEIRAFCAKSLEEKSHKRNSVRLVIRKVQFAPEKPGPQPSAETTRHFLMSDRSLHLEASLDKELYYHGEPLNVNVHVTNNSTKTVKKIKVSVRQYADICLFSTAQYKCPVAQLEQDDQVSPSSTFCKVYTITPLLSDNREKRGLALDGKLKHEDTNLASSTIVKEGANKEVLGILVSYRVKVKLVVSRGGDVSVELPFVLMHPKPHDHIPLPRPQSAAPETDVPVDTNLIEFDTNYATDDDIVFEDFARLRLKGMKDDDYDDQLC
# [2] = tested on: CHO-K1 cells overexpressing only GNA11 but not G2A; details: control cells without G2A; ONC compounds at ≥ 30 μM
# Molm-13 cells = test: IP-One assay in AML cells; type: cell-based; details: 90 minutes stimulation
# ML-2 cells = test: IP-One assay in AML cells; type: cell-based; details: 90 minutes stimulation
# [3] = tested on: capsaicin-induced TRPV1 responses in mouse primary sensory neurons; test: Calcium-imaging-based TRPV1 sensitization assay; type: cell-based
# Aqueous solubility = details: PBS with 1% DMSO, pH 7.4, aqueous solubility, PBS buffer
# GPR1 = GPR1 (Homo sapiens, UniProt P46091); type: cell-based; details: 60 μM, no endogenous ligand applied
# human G2A [4] = target: T1, human G2A (Homo sapiens, UniProt Q9UNW8); details: ratio of EC50 values
# T1 sequence (Q9UNW8 1-380): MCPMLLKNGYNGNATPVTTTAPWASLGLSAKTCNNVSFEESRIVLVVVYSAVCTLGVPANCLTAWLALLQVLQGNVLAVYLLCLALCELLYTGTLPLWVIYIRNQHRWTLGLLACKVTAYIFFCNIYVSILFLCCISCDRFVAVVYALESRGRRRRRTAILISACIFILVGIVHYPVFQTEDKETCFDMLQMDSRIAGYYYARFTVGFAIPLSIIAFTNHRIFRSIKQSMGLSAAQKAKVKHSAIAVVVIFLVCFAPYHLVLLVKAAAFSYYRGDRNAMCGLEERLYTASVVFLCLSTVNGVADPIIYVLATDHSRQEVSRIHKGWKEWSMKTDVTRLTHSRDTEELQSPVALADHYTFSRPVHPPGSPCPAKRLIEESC
# [5] = Pharmacokinetics in male C57Bl/6N mice
# [6] = Metabolic stability in rat liver microsomes; details: Sprague–Dawley rat liver microsomes
# ML-2 [7] = test: Cell viability; type: cell-based; details: 30 μM, 72 h
# ML-2 [8] = test: Apoptosis assay AnnexinV/7-AAD; type: cell-based; details: 30 μM, 24 h
# Molm-13 [9] = test: Apoptosis assay AnnexinV/7-AAD; type: cell-based; details: 30 μM, 24 h
# Molm-13 [10] = test: Cell viability; type: cell-based; details: 30 μM, 72 h
# G2A = details: weak antagonist of G2A; cited from earlier work
# Chain of GPR1 (P46091 whole entry): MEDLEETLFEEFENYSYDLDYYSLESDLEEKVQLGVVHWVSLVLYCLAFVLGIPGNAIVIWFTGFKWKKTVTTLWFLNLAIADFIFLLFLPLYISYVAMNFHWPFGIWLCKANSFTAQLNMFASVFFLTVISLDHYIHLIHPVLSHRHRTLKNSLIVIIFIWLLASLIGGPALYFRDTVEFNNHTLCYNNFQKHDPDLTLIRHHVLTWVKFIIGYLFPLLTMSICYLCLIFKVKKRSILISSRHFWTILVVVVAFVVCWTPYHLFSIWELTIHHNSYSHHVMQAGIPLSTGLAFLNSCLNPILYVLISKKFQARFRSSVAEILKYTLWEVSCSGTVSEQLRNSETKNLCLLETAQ
# Chain of GPR1 (P32121 whole entry partner): as the sequence (P32121 whole entry partner, one chain of several) above
compound,measurement,setting,value
CCCCC/C=C\C=C\[C@H](O)CCCCCCCC(=O)O [9(R)-HODE],βarr2 recruitment response,human G2A [1],did not result in any observable NanoLuc complementation
CCCCC/C=C\C=C\C(O)CCCCCCCC(=O)O (centres unmarked) [9-HODE],βarr2 recruitment response,human G2A [1],unable to stimulate the same degree of β-arrestin recruitment
same,increase in IP-1 not mediated by the receptor,[2],not been observed
same,activation of the Gq pathway (IP-1),Molm-13 cells,could not detect any activation of the Gq pathway
same,activation of the Gq pathway (IP-1),ML-2 cells,could not detect any activation of the Gq pathway
O=C(NC(Cc1ccccc1)C(=O)O)c1cccc(OCc2cccnc2)c1 (centres unmarked) [Compound 1],sensitization of capsaicin-induced TRPV1 responses,"[3]; 1 μM compound, 2 min, capsaicin 100 nM 30 s",potently sensitize for capsaicin-induced TRPV1 responses; also recorded: comparable to that observed with 200 nM (±)9-HODE
"O=C(N[C@H](Cc1ccccc1)C(=O)O)c1cccc(OCc2cccnc2)c1 [Compound 3, (R)-3-Phenyl-2-(3-(pyridin-3-ylmethoxy)benzamido)propanoic Acid]",solubility,Aqueous solubility,> 3000 µM
same,"partial agonism, share of maximal βarr2 recruitment observed with C9",GPR1,approximately 50%
same,activation of the Gq pathway (IP-1),Molm-13 cells,could not detect any activation of the Gq pathway
same,activation of the Gq pathway (IP-1),ML-2 cells,could not detect any activation of the Gq pathway
same,times more active than the (S) distomer 2,human G2A [4],more than 30 times
same,CL,[5]; 10 mg/kg sc,140.8 mL/min/kg
same,behavior and clinical signs after dosing,[5]; iv or sc in PBS,no clinical signs observed
same,rat liver microsomes (remaining after 60 min),[6],98% ^c
"COc1ccc(-c2cc(C(=O)N[C@@H](Cc3ccccc3)C(=O)NC3CCCCC3)ccc2O)cc1 [Compound 56, (S)-N-(1-(Cyclohexylamino)-1-oxo-3-phenylpropan-2-yl)-6-hydroxy-4′-methoxy-[1,1′-biphenyl]-3-carboxamide]",effect on TRPV1 sensitization by T-10418 (100 nM) and 9-HODE (400 nM),[3]; cotreatment with 10 μM antagonist,completely abolished
Cc1ccccc1CN1C(=O)C2=C(CCN(Cc3ccccc3)C2)N2CCN=C12 [ONC201],viable cells,ML-2 [7],strong reduction in viable
same,induction of apoptosis,ML-2 [8],induction of apoptosis could be confirmed
same,induction of apoptosis,Molm-13 [9],induction of apoptosis could be confirmed
same,viable cells,Molm-13 [10],strong reduction in viable
O=C1C2=C(CCN(Cc3ccccc3)C2)N2CCN=C2N1Cc1ccc(C(F)(F)F)cc1 [ONC212],increase in IP-1 not mediated by the receptor,[2],substantial increase in IP-1
same,activation of the Gq pathway (IP-1),Molm-13 cells,could not detect any activation of the Gq pathway
same,activation of the Gq pathway (IP-1),ML-2 cells,could not detect any activation of the Gq pathway
lysophosphatidylcholine [LPC],IC50,G2A,> 10 µM
